“Also recorded” adds a separate entry of the source.
Legend:
ABCB1 = target: T1, ABCB1 (Homo sapiens, UniProt P08183); experiment: Calcein accumulation transport assay in SW620V cells; type: cell-based; details: 10 µM compound; for increase of intracellular retention of calcein: ABCB1, SW620V cells; for inhibition of ABCB1 activity (calcein accumulation assay): SW620V cells, n = 3
T1 construct: ABCB1-overexpressing SW620V cells; endogenous in cells; host or cells: SW620V (vincristine-resistant variant of SW620, developed in the authors' laboratory by drug selection)
Text: (§1) To confirm the hypothesis of direct interaction between putative ABC protein inhibitors and transporter molecules, we conducted a series of experiments based on fluorescent probe transport as described previously. None of the compounds affected 2′,7′-bis(2-carboxyethyl)-5-(and-6)-carboxyfluorescein (BCECF) efflux out of SW620M cells, indicating the lack of interaction between the putative inhibitors and ABCC1 (Figure A). […] As anticipated, none of the newly synthesized compounds affected dye accumulation in drug-sensitive SW620 cells (data not shown).
SW620 cells and their drug-resistant variants overexpressing ABCB1 (SW620V), ABCC1 (SW620M), or ABCG2 (SW620Mito) were trypsinized and suspended in a complete cell - culture medium prewarmed to 37°C at a final density of approximately 1 × 10^6/mL. The tested compounds were added from DMSO stock solutions to a final concentration of 10 µM.
Respective samples were supplemented with a specific fluorescent marker (100 nM calcein AM for ABCB1, 100 nM BCECF AM for ABCC1, and 1 µM pheophorbide A for A BCG2). For the control, given protein-specific inhibitors (10 µM verapamil for ABCB1, 25 µM MK-571 for ABCC1, and 10 µM Ko143 for ABCG2) were added to parallel, tested compound-free, samples. For ABCB1 and ABCG2 assays (dye accumulation assays), intracellular fluorescence was measured by flow cytometry (FACSymphony A1, Becton, Dickinson and Company, New Jersey, USA) immediately after dye addition (time 0) and every 3–5 min up to approximately 30 min using a flow cytometer set at 488 nm excitation and 530/30 nm emission for the calcein/ABCB1 assay and 400 nm excitation and 655/8 nm emission for the pheophorbide A/ABCG2 assay. For the BCECF/ABCC1 assay (dye exclusion assay), the sample was preincubated at 37°C for 10 min, centrifuged (400 × g, 10 min, RT), and then resuspended in fresh medium. The intracellular BCECF concentration was then immediately measured at 488 nm excitation and 530/30 nm emission (time 0). Further measurements were performed at 15 - min intervals. All samples were incubated at 37°C between measurements. The accumulation/exclusion curves were plotted, and the slope of the initial accumulation rate or dye retention half time was evaluated using the GraphPad Prism software version 10 (GraphPad Software, Boston, Massachusetts USA). The difference between the a ccumulation rate/half time value for dye only and the tested compound/inhibitor samples was expressed as a given protein activity measure.

ABCG2 = target: T2, ABCG2 (Homo sapiens, UniProt Q9UNQ0); experiment: Pheophorbide A accumulation transport assay in SW620Mito cells; type: cell-based; details: 10 µM compound
T2 construct: ABCG2-overexpressing SW620C and SW620Mito; endogenous in cells; host or cells: SW620Mito (mitoxantrone-resistant variant of SW620, developed in the authors' laboratory by drug selection)
T2 sequence (Q9UNQ0 1-655): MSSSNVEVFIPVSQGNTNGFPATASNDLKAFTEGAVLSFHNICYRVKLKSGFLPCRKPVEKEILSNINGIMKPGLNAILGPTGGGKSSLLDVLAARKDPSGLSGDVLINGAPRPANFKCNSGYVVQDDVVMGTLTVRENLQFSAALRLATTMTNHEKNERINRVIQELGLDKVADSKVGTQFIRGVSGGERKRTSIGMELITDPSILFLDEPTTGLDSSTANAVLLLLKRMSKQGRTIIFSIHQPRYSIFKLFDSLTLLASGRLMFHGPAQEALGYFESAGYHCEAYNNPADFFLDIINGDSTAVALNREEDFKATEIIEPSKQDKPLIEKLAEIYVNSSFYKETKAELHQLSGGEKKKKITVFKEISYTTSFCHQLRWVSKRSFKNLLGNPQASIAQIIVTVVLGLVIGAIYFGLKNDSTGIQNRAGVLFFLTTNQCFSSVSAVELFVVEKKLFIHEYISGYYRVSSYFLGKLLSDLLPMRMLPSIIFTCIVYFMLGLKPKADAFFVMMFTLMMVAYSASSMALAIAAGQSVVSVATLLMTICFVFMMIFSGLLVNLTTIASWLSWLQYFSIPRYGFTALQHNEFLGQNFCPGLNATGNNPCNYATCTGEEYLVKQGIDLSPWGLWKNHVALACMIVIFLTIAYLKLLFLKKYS
Text: as §1, with “shown). […]” for “shown).”
Respective samples were supplemented with a specific fluorescent marker (100 nM calcein AM for ABCB1, 100 nM BCECF AM for ABCC1, and 1 µM pheophorbide A for A BCG2). […] For ABCB1 and ABCG2 assays (dye accumulation assays), intracellular fluorescence was measured by flow cytometry (FACSymphony A1, Becton, Dickinson and Company, New Jersey, USA) immediately after dye addition (time 0) and every 3–5 min up to approximately 30 min using a flow cytometer set at 488 nm excitation and 530/30 nm emission for the calcein/ABCB1 assay and 400 nm excitation and 655/8 nm emission for the pheophorbide A/ABCG2 assay. […] The intracellular BCECF concentration was then immediately measured at 488 nm excitation and 530/30 nm emission (time 0). […]

[1] = Neutral red uptake viability assay, SW620; type: cell-based, human; details: human, SW620 colon cancer cells; SW620, 72 h, n = 3; read-out: Cytotoxic activity IC50 (95% CI)
Experimental: To evaluate this aspect, we investigated the viability of SW620 colon cancer cells and their multidrug-resistant variants (overexpressing ABCB1, ABCC1, and ABCG2) exposed to 1 and 10 μM 4a–e using a neutral red uptake assay (Table ). In general, compounds 4a–e exerted little or no cytotoxic effect on either SW620 or multidrug-resistant sublines even at 10 μM, with the remarkable exception of SW620C (cisplatin-selected variant of SW620) cells, which turned out to be relatively susceptible toward ferrocenyl 4a–c. […] This trend may reflect steric or electronic contributions to cellular uptake or interaction with intracellular targets. […] However, since E/Z isomeric data are currently available only for compound 4c, this hypothesis requires validation. To quantify this effect, IC50 values were determined (Table ). […]
The normal lung fibroblast MRC-5 and colorectal adenocarcinoma SW620 cell lines used in this experiment were purchased from American Type Culture Collection (USA) via LGC […]
Standards. Multidrug-resistant variants of SW620 cells were developed in our laboratory as described previously.10, 11 All cells were cultured under standard conditions (37°C, 5% CO2, 100% humidity) in high-glucose DMEM supplemented with GlutaMaxTM, HEPES (ThermoFisher Scientific, USA), and 10% fetal bovine serum (EURx, Poland). Cells were routinely tested for potential Mycoplasma contamination using the MycoProbe Mycoplasma Detection kit (R&D System, USA).
In total, 104 cells in 100 µL of complete medium were plated per well of a 96-well plate and left overnight to allow cells to adhere to the surface. Then, the cells were exposed to a desired concentration of tested compound(s). Stock solutions were prepared in DMSO and used immediately. The final DMSO concentration was constant and nontoxic (0.1% v/v). After 70-h incubation, neutral red was added to the final concentration of 1 mM. After another 2 h, the medium was aspirated, and cells were washed twice with PBS. Dye was released using 100 µL of a solubilizer (1% acetic acid in 50% ethanol) on an orbital shaker (10 min). Absorbance was read at 540 nm using EnVision Multilabel Plate Reader (Perkin Elmer, USA). Results were expressed as % of control. The IC50 parameters were calculated using GraphPad Prism version 10 (GraphPad Software, Boston, Massachusetts USA). […]
All experiments were performed in triplicate (n = 3).

T1 sequence (P08183 whole entry): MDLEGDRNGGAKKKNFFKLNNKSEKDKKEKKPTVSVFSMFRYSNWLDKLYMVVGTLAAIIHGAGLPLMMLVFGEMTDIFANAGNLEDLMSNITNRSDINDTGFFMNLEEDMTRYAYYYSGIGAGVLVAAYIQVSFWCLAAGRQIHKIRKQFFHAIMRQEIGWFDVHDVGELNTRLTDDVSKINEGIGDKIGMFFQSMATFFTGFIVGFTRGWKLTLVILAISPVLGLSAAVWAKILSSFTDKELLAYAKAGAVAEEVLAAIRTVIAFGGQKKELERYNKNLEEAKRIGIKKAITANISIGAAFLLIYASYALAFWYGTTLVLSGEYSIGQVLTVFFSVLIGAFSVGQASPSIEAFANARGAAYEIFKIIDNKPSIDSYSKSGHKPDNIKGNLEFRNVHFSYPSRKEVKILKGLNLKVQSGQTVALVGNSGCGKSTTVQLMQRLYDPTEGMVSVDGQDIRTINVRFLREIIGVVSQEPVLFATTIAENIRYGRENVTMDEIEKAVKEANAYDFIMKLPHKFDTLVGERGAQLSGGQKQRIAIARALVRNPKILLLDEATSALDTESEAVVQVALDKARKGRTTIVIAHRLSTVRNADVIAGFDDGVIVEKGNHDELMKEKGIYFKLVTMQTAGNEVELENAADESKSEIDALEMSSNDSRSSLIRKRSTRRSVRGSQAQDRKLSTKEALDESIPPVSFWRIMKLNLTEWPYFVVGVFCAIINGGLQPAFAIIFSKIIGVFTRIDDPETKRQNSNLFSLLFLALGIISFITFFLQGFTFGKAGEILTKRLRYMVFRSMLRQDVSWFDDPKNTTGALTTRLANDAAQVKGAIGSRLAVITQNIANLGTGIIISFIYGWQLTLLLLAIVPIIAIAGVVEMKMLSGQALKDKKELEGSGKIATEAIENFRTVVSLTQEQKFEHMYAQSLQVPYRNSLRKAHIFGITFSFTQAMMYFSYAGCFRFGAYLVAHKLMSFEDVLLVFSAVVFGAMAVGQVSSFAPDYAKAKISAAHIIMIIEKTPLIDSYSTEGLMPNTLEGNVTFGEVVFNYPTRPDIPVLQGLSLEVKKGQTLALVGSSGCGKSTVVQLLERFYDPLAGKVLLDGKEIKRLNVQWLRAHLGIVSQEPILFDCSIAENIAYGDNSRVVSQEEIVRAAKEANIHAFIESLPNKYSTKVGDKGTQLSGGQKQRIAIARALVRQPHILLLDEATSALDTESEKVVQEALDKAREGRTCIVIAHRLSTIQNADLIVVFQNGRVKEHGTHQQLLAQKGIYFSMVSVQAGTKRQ

Compound | increase of intracellular retention of calcein (ABCB1) | inhibition of ABCB1 activity (calcein accumulation assay) (ABCB1) | increase of intracellular retention of pheophorbide A (ABCG2) [fold] | IC50 at 72 h [1] [µM]
O=C1N/C(=C\c2ccc(-[c-]3cccc3)cc2)C(=O)N2CCC[C@@H]12.[Fe+2].c1cc[cH-]c1 [(S,Z)-4d] | up to 3.4 fold | efficiently inhibited ABCB1 activity; also recorded: inhibit calcein efflux | ≤ 2.9 | 
O=C1N/C(=C\c2ccccc2-[c-]2cccc2)C(=O)N2CCC[C@@H]12.[Fe+2].c1cc[cH-]c1 [(S,Z)-4b] | up to 3.4 fold | efficiently inhibited ABCB1 activity; also recorded: inhibit calcein efflux | ≤ 2.9 | 
O=C1N/C(=C/c2ccccc2)C(=O)N2CCC[C@@H]12 [(S,E)-4e] |  |  |  | > 100
O=C1N/C(=C\c2ccccc2)C(=O)N2CCC[C@@H]12 [(S,Z)-4e] |  |  |  | > 100
